Laboratory results taken from patent US20180008573A1, “METHODS AND COMPOSITIONS FOR REDUCING DAMAGE ASSOCIATED WITH OXIDATIVE PHOSPHORYLATION” (USANA Health Sciences, Inc., priority 2016, published 2018).
Marks after values point to notes of the source that are not given here.

Assays:
human PPARα = molecular target: T1, human PPARα (Homo sapiens, UniProt Q07869); experiment: PPARα agonist reporter assay (Gal4 hybrid receptor, luciferase, CHO cells); assay type: cell-based
T1 construct: expressed in transfected cells; host or cells: CHO
T1 sequence (Q07869 239-466 limits assumed): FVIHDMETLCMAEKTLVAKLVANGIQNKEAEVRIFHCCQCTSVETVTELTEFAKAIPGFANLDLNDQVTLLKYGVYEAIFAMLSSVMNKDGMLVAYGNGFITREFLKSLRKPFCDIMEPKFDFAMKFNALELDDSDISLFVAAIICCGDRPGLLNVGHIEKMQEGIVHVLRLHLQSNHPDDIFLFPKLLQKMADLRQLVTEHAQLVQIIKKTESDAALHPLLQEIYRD

human PPARδ = molecular target: T2, human PPARδ (Homo sapiens, UniProt Q03181); experiment: PPARδ agonist reporter assay (Gal4 hybrid receptor, luciferase, CHO cells); assay type: cell-based
T2 construct: expressed in transfected cells; host or cells: CHO
T2 sequence (Q03181 211-439 limits assumed): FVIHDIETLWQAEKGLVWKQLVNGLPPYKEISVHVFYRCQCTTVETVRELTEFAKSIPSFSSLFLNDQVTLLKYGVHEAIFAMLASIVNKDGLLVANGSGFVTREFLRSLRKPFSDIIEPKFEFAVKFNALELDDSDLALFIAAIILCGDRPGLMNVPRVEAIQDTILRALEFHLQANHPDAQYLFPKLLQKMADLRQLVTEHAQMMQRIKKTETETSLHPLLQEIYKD

human PPARγ = molecular target: T3, human PPARγ (Homo sapiens, UniProt P37231); experiment: PPARγ agonist reporter assay (Gal4 hybrid receptor, luciferase, CHO cells); assay type: cell-based
T3 construct: expressed in transfected cells; host or cells: CHO
T3 sequence (P37231 238-503 limits assumed): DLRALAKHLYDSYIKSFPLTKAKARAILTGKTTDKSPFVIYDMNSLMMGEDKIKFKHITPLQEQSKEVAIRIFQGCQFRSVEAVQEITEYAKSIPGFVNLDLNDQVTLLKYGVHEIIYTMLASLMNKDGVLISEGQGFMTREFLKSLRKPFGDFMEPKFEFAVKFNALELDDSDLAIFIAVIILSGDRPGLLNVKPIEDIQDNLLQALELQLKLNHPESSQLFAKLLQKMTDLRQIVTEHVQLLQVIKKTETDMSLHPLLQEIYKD

human NF-κB = experiment: NF-κB antagonist reporter assay (NF-κB GRE-luciferase, HEK293 cells); assay type: cell-based;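 also: reporter cells carry native NF-κB receptor with firefly luciferase under upstream response elements, with a vehicle control included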
NF-κB reporter cells = experiment: Live cell multiplex assay in the NF-κB antagonist assay; assay type: cell-based, human
Procedure: A vehicle control was prepared.

Nrf2 = molecular target: T4, Nrf2 (Homo sapiens, UniProt Q16236); experiment: Nrf2 agonist reporter assay (native receptor, ARE-luciferase, CV1 cells); assay type: cell-based; design: comprising either the native receptor (Nrf2 and NF-κB); expressed in transfected cells; host or cells: CV1
T4 sequence (Q16236 1-605): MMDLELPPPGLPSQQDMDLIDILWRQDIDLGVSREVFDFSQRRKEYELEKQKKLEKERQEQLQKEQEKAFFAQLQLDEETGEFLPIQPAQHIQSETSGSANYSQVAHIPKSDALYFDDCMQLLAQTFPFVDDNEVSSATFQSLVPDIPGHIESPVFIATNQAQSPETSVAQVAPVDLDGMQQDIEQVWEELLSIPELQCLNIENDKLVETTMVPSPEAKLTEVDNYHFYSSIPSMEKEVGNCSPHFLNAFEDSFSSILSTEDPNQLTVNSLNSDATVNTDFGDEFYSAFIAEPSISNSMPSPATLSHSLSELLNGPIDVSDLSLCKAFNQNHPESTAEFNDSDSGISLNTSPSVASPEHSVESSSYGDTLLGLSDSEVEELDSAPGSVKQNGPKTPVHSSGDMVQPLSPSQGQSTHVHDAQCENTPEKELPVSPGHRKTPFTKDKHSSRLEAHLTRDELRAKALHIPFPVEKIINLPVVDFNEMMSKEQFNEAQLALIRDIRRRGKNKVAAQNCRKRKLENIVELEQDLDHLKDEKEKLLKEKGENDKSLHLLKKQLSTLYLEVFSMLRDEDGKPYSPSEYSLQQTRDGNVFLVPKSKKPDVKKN

C. elegans strain CB5586 = experiment: C. elegans phenotypic lifespan screening (Kaplan-Meier, Log-Rank, Fisher's Exact Test); assay type: in vivo; conditions: for restricted mean lifespan, # of Days: DMSO control 13.23
Procedure: Dilutions of the test formulations were applied to individual populations of C. elegans and the lifespan of each population was monitored. Any changes in the lifespan of an individual population compared to a control population were recorded and correlated to the respective test formulation (N356 or N357) and the respective dilution (0.1 mg/ml, 1 mg/ml, and 10 mg/ml).
The […] and N357 formulations were each prepared as individual 100 mg/ml stock solutions in dimethyl sulfoxide (DMSO). Serial dilutions of each stock solution were then prepared at 0.1 mg/ml, 1 mg/ml, and 10 mg/ml in DMSO. Control solutions of DMSO only were also prepared. Synchronous aged adult populations of C.elegans strain CB5586 worms were prepared. The CB5586 strain comprises a pharyngeal GFP (green fluorescent protein) tag and a mutation in the bus-5 gene. The pharyngeal GFP tag allows for fluorescent images of the worm populations to be taken. The mutation in the bus-5 gene causes the loss of normal cuticle antigens that permits the cuticle of the worms to become permeable to the test formulations and allow direct uptake of the test formulations to avoid interaction of the test formulations with protective mechanisms of the gut channel. Each serial dilution of each test formulation was added to a separate population of the prepared worms. The control solutions were also added to separate populations of the prepared worms. The populations of the prepared worms were then maintained on standard nematode growth media (NGM) agar plates at 20° C. with sufficient food (Escherichia coli strain OP-50).
Each worm population was then monitored by fluorescent imaging to determine the number of living and dead worms as a function of time. The fluorescent imaging was analyzed by software that recognized and counted worms based on their fluorescent intensity compared to background fluorescence. […] The ability to distinguish between living and dead worms allowed the number of living worms and cumulative number of dead worms to be monitored against time. Worm populations from a selection of fluorescent images were manually checked to verify that the software had accurately counted the number of living and dead worms.
The counts of the living and dead worms as a function of time were then analyzed for each of the worm populations and used to prepare Kaplan-Meier survival curves and associated statistics for each of the worm populations. […] The median lifespan is shown as the length of time after the last mitotic division that 50% of the test population remains viable when compared to the control population. The maximum lifespan extension is shown as the length of time after the last mitotic division that 5% of the test population remains viable when compared to the control population.
The counts of the living and dead worms as a function of time and the Kaplan-Meier survival curves and the associated statistics were then analyzed for each of the worm populations. The analysis included determining mean and median lifespan. The analysis included a non-parametric test, the Log-Rank test, that compares two survival functions for the overall lifespan assay and provides a reliable p-value summarizing the whole experiment. The analysis also included Fisher's Exact Test that calculated the significance of survival function comparisons at multiple specific time points throughout the experiment, rather than for the overall lifespan. The results of the analysis are shown below in Tables 10-17.
Phenotypic screening was carried out as described in EXAMPLE 2 for various individual compounds of the N357 formulation. […] Alpha lipoic acid was sourced from PureBulk USA as a racemic mix of R and S stereoisomers and was assigned a sample number of N198. Hesperidin was sourced from Sigma Aldrich at ≧80% purity and was assigned a sample number of N347. […]

COc1cc(/C=C/C(=O)CC(=O)/C=C/c2ccc(O)c(OC)c2)ccc1O [Curcumin, curcumin]
PPARα Fold-Activation (human PPARα; 0.007 μg/ml active ingredient): 1.3 fold
PPARα Fold-Activation (human PPARα; 0.022 μg/ml active ingredient): 1.3 fold
PPARα Fold-Activation (human PPARα; 0.067 μg/ml active ingredient): 1.3 fold
PPARα Fold-Activation (human PPARα; 0.20 μg/ml active ingredient): 1.1 fold
PPARα Fold-Activation (human PPARα; 0.60 μg/ml active ingredient): 1.0 fold
PPARα Fold-Activation (human PPARα; 1.81 μg/ml active ingredient): 0.86 fold
PPARδ Fold-Activation (human PPARδ; 0.007 μg/ml active ingredient): 1.2 fold
PPARδ Fold-Activation (human PPARδ; 0.022 μg/ml active ingredient): 1.2 fold
PPARδ Fold-Activation (human PPARδ; 0.067 μg/ml active ingredient): 1.0 fold
PPARδ Fold-Activation (human PPARδ; 0.20 μg/ml active ingredient): 1.2 fold
PPARδ Fold-Activation (human PPARδ; 0.60 μg/ml active ingredient): 1.3 fold
PPARδ Fold-Activation (human PPARδ; 1.81 μg/ml active ingredient): 1.0 fold
PPARγ Fold-Activation (human PPARγ; 0.007 μg/ml active ingredient): 1.0 fold
PPARγ Fold-Activation (human PPARγ; 0.022 μg/ml active ingredient): 1.0 fold
PPARγ Fold-Activation (human PPARγ; 0.067 μg/ml active ingredient): 0.95 fold
PPARγ Fold-Activation (human PPARγ; 0.20 μg/ml active ingredient): 0.96 fold
PPARγ Fold-Activation (human PPARγ; 0.60 μg/ml active ingredient): 0.90 fold
PPARγ Fold-Activation (human PPARγ; 1.81 μg/ml active ingredient): 1.1 fold
NF-κB % Inhibition (human NF-κB; 0.007 μg/ml active ingredient): −10%
NF-κB % Inhibition (human NF-κB; 0.022 μg/ml active ingredient): −3.4%
NF-κB % Inhibition (human NF-κB; 0.067 μg/ml active ingredient): −0.29%
NF-κB % Inhibition (human NF-κB; 0.20 μg/ml active ingredient): 22%
NF-κB % Inhibition (human NF-κB; 0.60 μg/ml active ingredient): 30%
NF-κB % Inhibition (human NF-κB; 1.81 μg/ml active ingredient): 51** %
antagonist activity against human NF-κB (human NF-κB; at the concentrations tested): very low-level antagonist activity
NF-κB % Live Cell (NF-κB reporter cells; 0.007 μg/ml active ingredient): 105%
NF-κB % Live Cell (NF-κB reporter cells; 0.022 μg/ml active ingredient): 105%
NF-κB % Live Cell (NF-κB reporter cells; 0.067 μg/ml active ingredient): 106%
NF-κB % Live Cell (NF-κB reporter cells; 0.20 μg/ml active ingredient): 105%
NF-κB % Live Cell (NF-κB reporter cells; 0.60 μg/ml active ingredient): 99%
NF-κB % Live Cell (NF-κB reporter cells; 1.81 μg/ml active ingredient): 97%
Nrf2 Fold-Activation (Nrf2; 0.007 μg/ml active ingredient): 1.6 fold
Nrf2 Fold-Activation (Nrf2; 0.022 μg/ml active ingredient): 1.7 fold
Nrf2 Fold-Activation (Nrf2; 0.067 μg/ml active ingredient): 1.4 fold
Nrf2 Fold-Activation (Nrf2; 0.20 μg/ml active ingredient): 0.96 fold
Nrf2 Fold-Activation (Nrf2; 0.60 μg/ml active ingredient): 1.0 fold
Nrf2 Fold-Activation (Nrf2; 1.81 μg/ml active ingredient): 1.6 fold

O=C(O[C@@H]1Cc2c(O)cc(O)cc2O[C@@H]1c1cc(O)c(O)c(O)c1)c1cc(O)c(O)c(O)c1 [EGCG, epigallocatechin gallate]
NF-κB % Inhibition (human NF-κB; 0.033 μg/ml active ingredient): 10%
NF-κB % Inhibition (human NF-κB; 0.098 μg/ml active ingredient): 18%
NF-κB % Inhibition (human NF-κB; 0.30 μg/ml active ingredient): 0.10%
NF-κB % Inhibition (human NF-κB; 0.89 μg/ml active ingredient): 8.4%
NF-κB % Inhibition (human NF-κB; 2.67 μg/ml active ingredient): −15%
NF-κB % Inhibition (human NF-κB; 8 μg/ml active ingredient): −29%
NF-κB % Live Cell (NF-κB reporter cells; 0.033 μg/ml active ingredient): 102%
NF-κB % Live Cell (NF-κB reporter cells; 0.098 μg/ml active ingredient): 101%
NF-κB % Live Cell (NF-κB reporter cells; 0.30 μg/ml active ingredient): 105%
NF-κB % Live Cell (NF-κB reporter cells; 0.89 μg/ml active ingredient): 104%
NF-κB % Live Cell (NF-κB reporter cells; 2.67 μg/ml active ingredient): 106%
NF-κB % Live Cell (NF-κB reporter cells; 8 μg/ml active ingredient): 107%

C[C@@H]1O[C@@H](OC[C@H]2O[C@@H](Oc3c(-c4ccc(O)c(O)c4)oc4cc(O)cc(O)c4c3=O)[C@H](O)[C@@H](O)[C@@H]2O)[C@H](O)[C@H](O)[C@H]1O [N346, rutin hydrate]
decrease of lifespan (C. elegans strain CB5586; 0.1 mg/ml): about 9%
population age in days at 25% mortality (C. elegans strain CB5586; 0.1 mg/ml): 9 days
population age in days at 50% mortality (C. elegans strain CB5586; 0.1 mg/ml): 11 days
population age in days at 75% mortality (C. elegans strain CB5586; 0.1 mg/ml): 14 days
population age in days at 90% mortality (C. elegans strain CB5586; 0.1 mg/ml): 18 days
% Change in Mean Lifespan (C. elegans strain CB5586; 0.1 mg/ml vs. DMSO control): −8%
restricted mean lifespan, # of Days (C. elegans strain CB5586; 0.1 mg/ml): 12.03 days
population age in days at 25% mortality (C. elegans strain CB5586; 10 mg/ml): 11 days
population age in days at 50% mortality (C. elegans strain CB5586; 10 mg/ml): 14 days
population age in days at 75% mortality (C. elegans strain CB5586; 10 mg/ml): 16 days
restricted mean lifespan, # of Days (C. elegans strain CB5586; 10 mg/ml): 13.43 days
